Patent publication US9610332B2, “Compositions and methods for modulating BRD4 bioactivity” (priority 2012, dated 2017)

Key:
[1] = target: Brd4 bromodomain 1 (Homo sapiens, UniProt O60885); settings: as reported previously (Nature 468:1067 (2010)); cited from earlier work
[2] = system: U20S cells overexpressing Brd4 isoform B; experiment: γH2AX foci / DDR signaling suppression in cells overexpressing Brd4 isoform B; format: cell-based, human; settings: for sensitivity of suppression of DDR signaling by Brd4 isoform B overexpression to transcription or translation inhibition: a-amanitin 1-16 μM, cycloheximide 35-560 μM
Method: U20S cells were plated on #1 glass coverslips (VWR) and were cultured in DMEM+Pen/Strep+10% v/v FBS (complete media) at 37° C. in a 5% CO2 atmosphere, then exposed to 10 Gy Ionizing radiation from a 137CS source in a Gammacell irradiator (Atomic Energy of Canada, Ltd). fixed in methanol, and processed for immuofluorescence using the antibodies indicated above. Images were captured on a Zeiss Axiophot II microscope with a Hamamatsu CCD camera and processed with OpenLab/Volocity software. Quantitative image analysis was accomplished using CellProfiler (www.CellProfiler.org) or ImageJ software (http://rsb.info.nih.gov/nihimageJ).
(§1) UCN01 was from Sigma (cat. #U6508) and was used at concentrations of 0.003-10 μM.
3×10^6 U20S cells were plated and transiently transfected with pEGFP-C 1, isoform C, isoform B, isoform B, BD1 mutant, Brd4-NUT and truncated Brd4-NUT using Fugene 6 (Roche). These cells were exposed to 10 Gy Ionizing radiation and harvested 24 hrs later, fixed with 4% formaldehyde, extracted with 100% ethanol, processed for flow cytometry using the antibodies listed above. Data were analyzed using FlowJo (www.flowjo.com) software.
U20S cell lines stably expressing this shRNA or control hairpins (ineffective hairpins directed against human sequences of BAD and PUMA) were created using puromycin selection at 2 ug/mL. STEALTH siRNA against BRD4 and control were purchased from Invitrogen, and used according to manufacturer's instructions.

[3] = system: CHEK2 mRNA; experiment: CHEK2 mRNA expression by RT-PCR; format: cell-based, human; settings: short term treatment; FIG. 6B, 6C
Method: as §1

[4] = system: U20S cells; experiment: H2AX phosphorylation / γH2AX foci after IR with Brd4 bromodomain inhibitor; format: cell-based, human
Method: For small molecule testing, cells were plated at 500 cells/well in 384-well plates. The day after plating, small molecules at different concentrations in 100 nL DMSO were pin transferred to cells with a CyBio robot, and cells were propagated for 16 hours.
All plates were treated with 10 Gy of 667 keV X-rays from a 137Cs source in a Gammacell irradiator (Atomic Energy of Canada, Ltd). A 0 hour control plate was not irradiated. The plates were returned to the incubator and fixed with 4.4% w/v paraformaldehyde in phosphate-buffered saline (PBS) at 1, 6, and 24 hours post irradiation. Plates were stored in PBS at 4° C. prior to staining. Fixed plates were washed 3 times with PBS and blocked with 24 IJL of GSDB (0.15% goat serum, 8.33% goat serum, 120 mM sodium phosphate, 225 mM NaCl) for 30 minutes. […]
U20S cells were plated on #1 glass coverslips (VWR) and were cultured in DMEM+Pen/Strep+10% v/v FBS (complete media) at 37° C. in a 5% CO2 atmosphere, then exposed to 10 Gy Ionizing radiation from a 137CS source in a Gammacell irradiator (Atomic Energy of Canada, Ltd). fixed in methanol, and processed for immuofluorescence using the antibodies indicated above. […] Quantitative image analysis was accomplished using CellProfiler (www.CellProfiler.org) or ImageJ software (http://rsb.info.nih.gov/nihimageJ).

[5] = system: U20S cells; experiment: Image-based screen: G2/M arrest and mitotic entry (DNA content, pHH3) after irradiation; format: cell-based, human; settings: 10 Gy IR, FIGS. 1B, 1D, 1F, 1G
Method: For both shRNA and small molecule screens, human U20S osteosarcoma cells (ATCC HTB-96) were grown in DMEM+Pen/Strep+10% v/v FBS (complete media) at 37° C. in a 5% CO2 atmosphere. All screens were carried out at passage 10-15. Cells were tested for mycoplasma by PCR prior to seeding and infection. U20S cells were seeded with a MicroFill (Biotek) in 384-well black, clear bottom plates (Greiner) at a density of 300 (shRNA) cells/well in 50 IJL of media, and allowed to attach overnight at 37° C. in a 5% CO2 atmosphere.
For shRNA screens, the media was exchanged the following day to complete media with 8 μg/mL polybrene using a JANUS workstation (PerkinElmer). Virus infection was carried out on an EP3 workstation (PerkinElmer) with 1.5 μL of hightiter retrovirus. […] Plates were centrifuged in a swinging-bucket rotor at 2250 rpm for 30 minutes following infection and returned to the incubator overnight. […]
Plates were allowed to equilibrate to room temperature for 30 minutes and imaged on a Cellomics ArrayScan VTI automated microscope with a 20× objective. […] Images were segmented and analyzed with CellProfiler cell image analysis software (Carpenter et al., Genome Biology, 2006, 7, R100). […]

Compound: Cc1sc2c(c1C)C(c1ccc(Cl)cc1)=NC(CC(=O)OC(C)(C)C)c1nnc(C)n1-2 (single isomer, unassigned; (+)) [(+)JQ1]
- inhibition of Brd4 bromodomain 1 versus bromodomain 2 [1]: more potent inhibition of Brd4 bromodomain 1 than bromodomain 2
- reversal of the ability of Brd4 isoform B to suppress γH2AX foci formation ([2]; cells overexpressing Brd4 isoform B, compound at 250 nM): reversed
- CHEK2 mRNA [3]: no change in CHEK2 mRNA
- H2AX phosphorylation following IR ([4]; compound at 250 nM, 10 Gy IR): enhanced H2AX phosphorylation following IR
- γH2AX foci formation after irradiation ([4]; inhibition with JQ1 or short term Brd4 knockdown): sufficient to increase γH2AX foci formation after irradiation

Compound: CN[C@@H]1C[C@H]2O[C@@](C)([C@@H]1OC)n1c3ccccc3c3c4c(c5c6ccccc6n2c5c31)C(=O)N[C@@H]4O [UCN01]
- G2/M arrest following irradiation / mitotic entry [5]: abrogated the normal G2/M arrest following irradiation, leading to premature mitotic entry

Compound: C[C@@H]1C[C@@H]([C@H](O)CC2CC(=O)NC(=O)C2)C(=O)[C@@H](C)C1 [cycloheximide]
- sensitivity of suppression of DDR signaling by Brd4 isoform B overexpression to transcription or translation inhibition [2]: insensitive

Compound: a-amanitin
- sensitivity of suppression of DDR signaling by Brd4 isoform B overexpression to transcription or translation inhibition [2]: insensitive
